Our source for the MIC values is ChEMBL document CHEMBL1146463, “A pair of new C-21 steroidal glycoside epimers from the roots of Cynanchum paniculatum” (2004).

Values after ≈ are worked out from the molar mass of the structure shown.

The experiment relates to Staphylococcus aureus. In words: Antibacterial activity against methicillin-resistant Staphylococcus aureus after 20 hrs. The class given is functional.
In the case of `CC(=O)OCC1=C(C(=O)O)N2C(=O)[C@@H](NC(=O)CSc3ccncc3)[C@H]2SC1` [CEPHAPIRIN], the minimum inhibitory concentration (MIC) was 10.5 µg/mL (≈ 24.8 µM). With `CO[C@@H]1C[C@H](O[C@H]2CC[C@@]3(C)C(=CC[C@H]4C(=O)O[C@H]5CO[C@]6(C)O[C@@H](O)/C(=C/C[C@@H]43)[C@H]56)C2)O[C@H](C)[C@H]1O` [PANICULATUMOSIDE B] the figure was 149 µg/mL (≈ 285 µM); with `CO[C@@H]1C[C@H](O[C@H]2CC[C@@]3(C)C(=CC[C@H]4C(=O)O[C@@H]5CO[C@]6(C)O[C@H](O)/C(=C/C[C@@H]43)[C@H]56)C2)O[C@H](C)[C@H]1O` [PANICULATUMOSIDE A], 180 µg/mL (≈ 345 µM).

By MIC is commonly meant the smallest concentration in the dilution series that meets the test's criterion for growth inhibition. High values mean weaker potency, low ones greater potency.
